{"source": "PubChem BioAssay AID2060483", "about": "(Molecular Pharmacology Branch, DTP, NCI, 2025);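 also: spheroids exposed to compounds for seven days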", "tested_on": "K24384-001-R-PDC complex spheroids, viability", "assay": "Anticancer human tumor K24384-001-R-PDC patient-derived pancreatic adenocarcinoma cell line growth inhibition [GQUAD]", "settings": "for IC50: curve of first compound; for viability, T/C: stronger effect = lower value", "method_in_brief": "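Multi-cell-type spheroids of tumor cells with HUVEC and mesenchymal stem cells, treated with drug combinations. Concentrations descend in half-log steps from near clinical Cmax, or from 10 microM where Cmax is unknown; viability read-out.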", "key": {"[1]": {"settings": "second compound 0.0316 µM, first compound 0.0316 µM"}, "[2]": {"settings": "second compound 0.0316 µM, first compound 0.1 µM"}, "[3]": {"settings": "second compound 0.0316 µM, first compound 0.316 µM"}, "[4]": {"settings": "second compound 0.0316 µM, first compound 1 µM"}, "[5]": {"settings": "second compound 0.0316 µM, first compound 3.16 µM"}, "[6]": {"settings": "second compound 0.0316 µM, first compound 10 µM"}, "[7]": {"settings": "second compound 0.1 µM, first compound 0.0316 µM"}, "[8]": {"settings": "second compound 0.1 µM, first compound 0.1 µM"}, "[9]": {"settings": "second compound 0.1 µM, first compound 0.316 µM"}, "[10]": {"settings": "second compound 0.1 µM, first compound 1 µM"}, "[11]": {"settings": "second compound 0.1 µM, first compound 3.16 µM"}, "[12]": {"settings": "second compound 0.1 µM, first compound 10 µM"}, "[13]": {"settings": "second compound 0.316 µM, first compound 0.0316 µM"}, "[14]": {"settings": "second compound 0.316 µM, first compound 0.1 µM"}, "[15]": {"settings": "second compound 0.316 µM, first compound 0.316 µM"}, "[16]": {"settings": "second compound 0.316 µM, first compound 1 µM"}, "[17]": {"settings": "second compound 0.316 µM, first compound 3.16 µM"}, "[18]": {"settings": "second compound 0.316 µM, first compound 10 µM"}, "[19]": {"settings": "second compound 1 µM, first compound 0.0316 µM"}, "[20]": {"settings": "second compound 1 µM, first compound 0.1 µM"}, "[21]": {"settings": "second compound 1 µM, first compound 0.316 µM"}, "[22]": {"settings": "second compound 1 µM, first compound 1 µM"}, "[23]": {"settings": "second compound 1 µM, first compound 3.16 µM"}, "[24]": {"settings": "second compound 1 µM, first compound 10 µM"}, "[25]": {"settings": "second compound 3.16 µM, first compound 0.0316 µM"}, "[26]": {"settings": "second compound 3.16 µM, first compound 0.1 µM"}, "[27]": {"settings": "second compound 3.16 µM, first compound 0.316 µM"}, "[28]": {"settings": "second compound 3.16 µM, first compound 1 µM"}, "[29]": {"settings": "second compound 3.16 µM, first compound 3.16 µM"}, "[30]": {"settings": "second compound 3.16 µM, first compound 10 µM"}, "[31]": {"settings": "second compound 10 µM, first compound 0.0316 µM"}, "[32]": {"settings": "second compound 10 µM, first compound 0.1 µM"}, "[33]": {"settings": "second compound 10 µM, first compound 0.316 µM"}, "[34]": {"settings": "second compound 10 µM, first compound 1 µM"}, "[35]": {"settings": "second compound 10 µM, first compound 3.16 µM"}, "[36]": {"settings": "second compound 10 µM, first compound 10 µM"}}}
{"smiles": "C#Cc1c(F)ccc2cc(O)cc(-c3ncc4c(N5CC6CCC(C5)N6)nc(OCC56CCCN5CC(F)C6)nc4c3F)c12", "note": "(centres undefined) + Cc1cnc(CNC(=O)c2c(=O)c3ccc(N4CCCN(C)CC4)nc3n3c2sc2ccccc23)cn1", "values": [{"measurement": "IC50", "setting": "second compound 0.0316 µM", "value": 966, "unit": "nM"}, {"measurement": "IC50", "setting": "second compound 0.1 µM", "value": 494, "unit": "nM"}, {"measurement": "IC50", "setting": "second compound 0.316 µM", "value": 91.8, "unit": "nM"}, {"measurement": "IC50", "setting": "second compound 1 µM", "value": "< 31.6", "unit": "nM"}, {"measurement": "IC50", "setting": "second compound 3.16 µM", "value": "< 31.6", "unit": "nM"}, {"measurement": "IC50", "setting": "second compound 10 µM", "value": "< 31.6", "unit": "nM"}, {"measurement": "viability, T/C", "setting": "[1]", "value": 72, "unit": "%"}, {"measurement": "viability, T/C", "setting": "[2]", "value": 83.7, "unit": "%"}, {"measurement": "viability, T/C", "setting": "[3]", "value": 88.4, "unit": "%"}, {"measurement": "viability, T/C", "setting": "[4]", "value": 49, "unit": "%"}, {"measurement": "viability, T/C", "setting": "[5]", "value": 31.2, "unit": "%"}, {"measurement": "viability, T/C", "setting": "[6]", "value": 23.1, "unit": "%"}, {"measurement": "viability, T/C", "setting": "[7]", "value": 68.5, "unit": "%"}, {"measurement": "viability, T/C", "setting": "[8]", "value": 65.3, "unit": "%"}, {"measurement": "viability, T/C", "setting": "[9]", "value": 54, "unit": "%"}, {"measurement": "viability, T/C", "setting": "[10]", "value": 41.6, "unit": "%"}, {"measurement": "viability, T/C", "setting": "[11]", "value": 31.9, "unit": "%"}, {"measurement": "viability, T/C", "setting": "[12]", "value": 20.4, "unit": "%"}, {"measurement": "viability, T/C", "setting": "[13]", "value": 52.3, "unit": "%"}, {"measurement": "viability, T/C", "setting": "[14]", "value": 48, "unit": "%"}, {"measurement": "viability, T/C", "setting": "[15]", "value": 51.6, "unit": "%"}, {"measurement": "viability, T/C", "setting": "[16]", "value": 31.7, "unit": "%"}, {"measurement": "viability, T/C", "setting": "[17]", "value": 32.7, "unit": "%"}, {"measurement": "viability, T/C", "setting": "[18]", "value": 15.5, "unit": "%"}, {"measurement": "viability, T/C", "setting": "[19]", "value": 34.7, "unit": "%"}, {"measurement": "viability, T/C", "setting": "[20]", "value": 42.6, "unit": "%"}, {"measurement": "viability, T/C", "setting": "[21]", "value": 41.5, "unit": "%"}, {"measurement": "viability, T/C", "setting": "[22]", "value": 29, "unit": "%"}, {"measurement": "viability, T/C", "setting": "[23]", "value": 27, "unit": "%"}, {"measurement": "viability, T/C", "setting": "[24]", "value": 14.1, "unit": "%"}, {"measurement": "viability, T/C", "setting": "[25]", "value": 29, "unit": "%"}, {"measurement": "viability, T/C", "setting": "[26]", "value": 36.7, "unit": "%"}, {"measurement": "viability, T/C", "setting": "[27]", "value": 33.9, "unit": "%"}, {"measurement": "viability, T/C", "setting": "[28]", "value": 34.9, "unit": "%"}, {"measurement": "viability, T/C", "setting": "[29]", "value": 18.4, "unit": "%"}, {"measurement": "viability, T/C", "setting": "[30]", "value": 11.9, "unit": "%"}, {"measurement": "viability, T/C", "setting": "[31]", "value": 0.13, "unit": "%"}, {"measurement": "viability, T/C", "setting": "[32]", "value": 0.18, "unit": "%"}, {"measurement": "viability, T/C", "setting": "[33]", "value": 0.23, "unit": "%"}, {"measurement": "viability, T/C", "setting": "[34]", "value": 0.2, "unit": "%"}, {"measurement": "viability, T/C", "setting": "[35]", "value": 0.23, "unit": "%"}, {"measurement": "viability, T/C", "setting": "[36]", "value": 0.2, "unit": "%"}]}
{"smiles": "CC(=O)O[C@H]1C(=O)[C@@]2(C)[C@H]([C@H](OC(=O)c3ccccc3)[C@]3(O)C[C@H](OC(=O)[C@H](O)[C@@H](NC(=O)c4ccccc4)c4ccccc4)C(C)=C1C3(C)C)[C@]1(OC(C)=O)CO[C@@H]1C[C@@H]2O", "note": "+ Cc1cnc(CNC(=O)c2c(=O)c3ccc(N4CCCN(C)CC4)nc3n3c2sc2ccccc23)cn1", "values": [{"measurement": "IC50", "setting": "second compound 0.0316 µM", "value": 37.4, "unit": "nM"}, {"measurement": "IC50", "setting": "second compound 0.1 µM", "value": "< 31.6", "unit": "nM"}, {"measurement": "IC50", "setting": "second compound 0.316 µM", "value": "< 31.6", "unit": "nM"}, {"measurement": "IC50", "setting": "second compound 1 µM", "value": "< 31.6", "unit": "nM"}, {"measurement": "IC50", "setting": "second compound 3.16 µM", "value": "< 31.6", "unit": "nM"}, {"measurement": "IC50", "setting": "second compound 10 µM", "value": "< 31.6", "unit": "nM"}, {"measurement": "viability, T/C", "setting": "[1]", "value": 53.4, "unit": "%"}, {"measurement": "viability, T/C", "setting": "[2]", "value": 27.2, "unit": "%"}, {"measurement": "viability, T/C", "setting": "[3]", "value": 38.1, "unit": "%"}, {"measurement": "viability, T/C", "setting": "[4]", "value": 23.7, "unit": "%"}, {"measurement": "viability, T/C", "setting": "[5]", "value": 29.2, "unit": "%"}, {"measurement": "viability, T/C", "setting": "[6]", "value": 31.1, "unit": "%"}, {"measurement": "viability, T/C", "setting": "[7]", "value": 47.4, "unit": "%"}, {"measurement": "viability, T/C", "setting": "[8]", "value": 35.2, "unit": "%"}, {"measurement": "viability, T/C", "setting": "[9]", "value": 30.4, "unit": "%"}, {"measurement": "viability, T/C", "setting": "[10]", "value": 31.8, "unit": "%"}, {"measurement": "viability, T/C", "setting": "[11]", "value": 29.5, "unit": "%"}, {"measurement": "viability, T/C", "setting": "[12]", "value": 36.8, "unit": "%"}, {"measurement": "viability, T/C", "setting": "[13]", "value": 47, "unit": "%"}, {"measurement": "viability, T/C", "setting": "[14]", "value": 39.9, "unit": "%"}, {"measurement": "viability, T/C", "setting": "[15]", "value": 36.5, "unit": "%"}, {"measurement": "viability, T/C", "setting": "[16]", "value": 29.9, "unit": "%"}, {"measurement": "viability, T/C", "setting": "[17]", "value": 39.1, "unit": "%"}, {"measurement": "viability, T/C", "setting": "[18]", "value": 34.3, "unit": "%"}, {"measurement": "viability, T/C", "setting": "[19]", "value": 32.4, "unit": "%"}, {"measurement": "viability, T/C", "setting": "[20]", "value": 36.2, "unit": "%"}, {"measurement": "viability, T/C", "setting": "[21]", "value": 26.6, "unit": "%"}, {"measurement": "viability, T/C", "setting": "[22]", "value": 37.4, "unit": "%"}, {"measurement": "viability, T/C", "setting": "[23]", "value": 41.9, "unit": "%"}, {"measurement": "viability, T/C", "setting": "[24]", "value": 34.4, "unit": "%"}, {"measurement": "viability, T/C", "setting": "[25]", "value": 31.9, "unit": "%"}, {"measurement": "viability, T/C", "setting": "[26]", "value": 33.5, "unit": "%"}, {"measurement": "viability, T/C", "setting": "[27]", "value": 32.6, "unit": "%"}, {"measurement": "viability, T/C", "setting": "[28]", "value": 28.9, "unit": "%"}, {"measurement": "viability, T/C", "setting": "[29]", "value": 32.5, "unit": "%"}, {"measurement": "viability, T/C", "setting": "[30]", "value": 36.5, "unit": "%"}, {"measurement": "viability, T/C", "setting": "[31]", "value": 0.14, "unit": "%"}, {"measurement": "viability, T/C", "setting": "[32]", "value": 0.18, "unit": "%"}, {"measurement": "viability, T/C", "setting": "[33]", "value": 0.21, "unit": "%"}, {"measurement": "viability, T/C", "setting": "[34]", "value": 0.18, "unit": "%"}, {"measurement": "viability, T/C", "setting": "[35]", "value": 0.19, "unit": "%"}, {"measurement": "viability, T/C", "setting": "[36]", "value": 0.2, "unit": "%"}]}
